# According to patent US6545002B1 (University of Virginia Patent Foundation, priority 1999, dated 2003):
# Where two headings read alike, the source gives them in different places.
# Legend:
# rat A2A receptors (rA2A) = target: T1, rat A2A receptors (rA2A) (Rattus norvegicus, UniProt P30543); assay: Displacement of [3H]CGS 21680 binding in rat striatal membranes
# T1 construct: to A2A receptors from rat striatal membranes was performed as described; from tissue; host or cells: rat striatal membranes
# Method: (§1) Bruns, R. F. et al., Naunyn-Schmiedeberg's Arch. […] Binding of [^3H]R-N^6-phenylisopropyladenosine. Schwabe, U. et al., Naunyn-Schmiedeberg's Arch. […] (Dupont NEN, Boston, Mass.) to A2A receptors from rat striatal membranes was performed as described. […] All non-radioactive compounds were initially dissolved in DMSO, and diluted with buffer to the final concentration, where the amount of DMSO never exceeded 2%. Incubations were terminated by rapid filtration over Whatman GF/B filters, using a Brandell cell harvester (Brandell, Gaithersburg, Md.). The tubes were rinsed three times with 3 mL buffer each.
# (§2) At least six different concentrations of competitor, spanning 3 orders of magnitude adjusted appropriately for the IC50 of each compound, were used. IC50 values, calculated with the nonlinear regression method implemented in (Graph-Pad Prism, San Diego, Calif.), were converted to apparent Ki values as described. Linden, J., J. Cycl. Nucl.
# [1] = target: T2, human A2B receptors (hA2B) (Homo sapiens, UniProt P29275); assay: Radioligand binding ([125I]ABOPX / [3H]ZM241385) at human A2B receptors expressed in HEK-293 cells; settings: for rA1/hA2B: Ki ratio
# T2 construct: expressed in transfected cells; host or cells: HEK-293 (HEK-A2B, G418-selected)
# T2 sequence (P29275 1-332): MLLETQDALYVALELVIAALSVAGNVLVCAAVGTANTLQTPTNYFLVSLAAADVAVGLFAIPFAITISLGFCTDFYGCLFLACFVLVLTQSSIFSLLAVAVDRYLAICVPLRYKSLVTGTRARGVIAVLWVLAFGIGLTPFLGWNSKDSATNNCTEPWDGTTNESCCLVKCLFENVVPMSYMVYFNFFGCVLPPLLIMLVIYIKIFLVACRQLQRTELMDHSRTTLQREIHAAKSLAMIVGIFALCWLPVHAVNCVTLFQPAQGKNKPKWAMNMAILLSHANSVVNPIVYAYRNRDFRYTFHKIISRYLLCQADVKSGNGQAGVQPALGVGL
# human A3 receptors (hA3) = target: T3, human A3 receptors (hA3) (Homo sapiens, UniProt P0DMS8); assay: Displacement of [125I]ABA binding at human A3 receptors expressed in HEK-293 cells
# T3 construct: expressed in transfected cells; host or cells: HEK-293
# T3 sequence (P0DMS8 1-318): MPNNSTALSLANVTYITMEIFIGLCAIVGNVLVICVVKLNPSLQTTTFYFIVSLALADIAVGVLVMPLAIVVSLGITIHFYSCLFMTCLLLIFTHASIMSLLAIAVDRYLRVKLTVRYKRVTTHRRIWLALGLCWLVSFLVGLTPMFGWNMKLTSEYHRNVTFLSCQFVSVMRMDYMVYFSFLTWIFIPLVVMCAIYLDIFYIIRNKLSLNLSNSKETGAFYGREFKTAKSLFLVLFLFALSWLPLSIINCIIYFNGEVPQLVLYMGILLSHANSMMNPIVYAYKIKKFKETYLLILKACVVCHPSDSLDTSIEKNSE
# [2] = target: T4, recombinant human A1 receptors (hA1) (Homo sapiens, UniProt P30542); assay: Radioligand binding ([3H]CPX) at recombinant human A1 receptors in HEK-293 cells
# T4 sequence (P30542 1-326): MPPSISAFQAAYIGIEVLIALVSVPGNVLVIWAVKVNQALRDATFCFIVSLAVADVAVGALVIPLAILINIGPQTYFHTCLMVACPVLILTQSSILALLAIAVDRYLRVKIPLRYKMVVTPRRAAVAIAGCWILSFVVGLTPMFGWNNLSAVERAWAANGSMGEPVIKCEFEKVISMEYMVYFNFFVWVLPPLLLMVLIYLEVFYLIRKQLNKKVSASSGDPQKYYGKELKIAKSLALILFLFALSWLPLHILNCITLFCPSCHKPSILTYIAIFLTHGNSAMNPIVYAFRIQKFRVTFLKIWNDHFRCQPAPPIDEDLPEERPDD
# [3] = target: recombinant human A2A receptors (hA2A) (Homo sapiens, UniProt P29274); assay: Radioligand binding (125I-ZM241385) at recombinant human A2A receptors in HEK-293 cells
# rat A1 receptors (rA1) = target: T5, rat A1 receptors (rA1) (Rattus norvegicus, UniProt P25099); assay: Displacement of [3H]R-PIA binding in rat brain (cerebral cortical) membranes
# T5 construct: to A1 receptors from rat cerebral cortical membranes; from tissue; host or cells: rat cerebral cortical (brain) membranes
# T5 sequence (P25099 1-326): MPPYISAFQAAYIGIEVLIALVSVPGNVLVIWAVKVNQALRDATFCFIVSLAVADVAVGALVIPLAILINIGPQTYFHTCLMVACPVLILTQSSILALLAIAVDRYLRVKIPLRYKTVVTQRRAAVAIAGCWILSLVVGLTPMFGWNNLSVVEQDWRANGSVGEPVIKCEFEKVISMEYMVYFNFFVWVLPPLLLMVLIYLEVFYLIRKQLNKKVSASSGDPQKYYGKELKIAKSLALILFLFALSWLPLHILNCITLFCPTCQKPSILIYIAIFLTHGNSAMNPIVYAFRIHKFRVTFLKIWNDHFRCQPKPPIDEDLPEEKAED
# Method: as §1, §2
# [4] = Table 2, read-out: rA2A Ki or IC50
# [5] = Table 2, read-out: hA2B Ki or IC50
# [6] = Table 2, read-out: hA3 Ki or IC50
# [7] = read-out: hA1 Ki or IC50, Table 2
# [8] = read-out: hA2A Ki or IC50, Table 2
# [9] = Table 2, read-out: rA1 Ki or IC50
# [10] = Table 4, footnote a: [125I]-ABOPX, read-out: hA2B Ki (value marked ^a) (converted)
# [11] = Table 4, unmarked value, first of two binding assays, read-out: hA2B Ki
# [12] = Table 4, footnote a: [125I]ABA, read-out: hA3 Ki (value marked ^a)
# [13] = read-out: hA1 Ki, values marked (h)^a, Table 4, vs [3H]CPX, HEK-293
# [14] = read-out: hA2A Ki, values marked (h)^a, Table 4, vs [125I]ZM241385, HEK-293
# T1 sequence (P30543 whole entry): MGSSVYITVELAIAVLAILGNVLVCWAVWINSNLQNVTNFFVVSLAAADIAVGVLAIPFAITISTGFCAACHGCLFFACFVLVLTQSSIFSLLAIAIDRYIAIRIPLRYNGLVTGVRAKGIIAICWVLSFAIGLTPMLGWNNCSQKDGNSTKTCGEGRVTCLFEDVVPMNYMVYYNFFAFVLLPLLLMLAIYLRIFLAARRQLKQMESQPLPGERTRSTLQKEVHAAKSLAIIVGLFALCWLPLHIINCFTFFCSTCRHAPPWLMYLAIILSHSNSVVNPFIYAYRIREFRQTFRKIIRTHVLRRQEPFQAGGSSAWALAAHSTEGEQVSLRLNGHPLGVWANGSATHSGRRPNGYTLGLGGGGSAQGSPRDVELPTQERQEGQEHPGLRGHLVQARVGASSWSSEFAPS
# recombinant human A2A receptors (hA2A), sequence (P29274 whole entry): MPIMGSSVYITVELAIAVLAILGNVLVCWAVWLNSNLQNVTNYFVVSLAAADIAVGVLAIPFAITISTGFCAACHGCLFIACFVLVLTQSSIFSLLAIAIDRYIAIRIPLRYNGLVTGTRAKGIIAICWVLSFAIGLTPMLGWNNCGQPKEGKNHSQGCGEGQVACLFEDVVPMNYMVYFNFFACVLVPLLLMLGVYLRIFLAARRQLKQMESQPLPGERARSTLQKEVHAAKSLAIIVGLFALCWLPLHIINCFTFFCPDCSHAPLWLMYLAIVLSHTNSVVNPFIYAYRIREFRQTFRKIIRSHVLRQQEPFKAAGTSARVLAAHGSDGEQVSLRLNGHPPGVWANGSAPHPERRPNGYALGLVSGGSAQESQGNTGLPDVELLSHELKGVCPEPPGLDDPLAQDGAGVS
smiles,measurement,setting,value
CCCn1c(=O)c2[nH]c(-c3ccc(C=CC(=O)O)cc3)nc2n(CCC)c1=O [Compound 8],Ki,"rat A2A receptors (rA2A); Table 1, [3H]CGS 21680, rat striatal membranes, read-out: rA2A Ki or IC50",800 nM
same,Ki,"[1]; Table 1, [125I]ABOPX, HEK-293, read-out: hA2B Ki or IC50",60 ± 2 nM
same,Ki,"human A3 receptors (hA3); Table 1, [125I]ABA, HEK-293, read-out: hA3 Ki or IC50",30 ± 14 nM
same,Ki,"[2]; read-out: hA1 Ki, values marked (h), Table 1, recombinant human A1, HEK 293",140 ± 3 nM
same,Ki,"[3]; read-out: hA2A Ki, values marked (h), Table 1, recombinant human A2A, HEK 293",190 ± 71 nM
"CCCn1c(=O)c2[nH]c(-c3ccc(OCC(=O)Nc4ccccc4)cc3)nc2n(CCC)c1=O [Compound 12, 8-[4-[(Phenylcarbamoylmethyl)oxy]phenyl]-1,3-di-(n-propyl)-xanthine]",Ki,rat A2A receptors (rA2A); [4],45.6 ± 1.4 nM
same,Ki,[1]; [5],1.48 ± 0.63 nM
same,Ki,human A3 receptors (hA3); [6],137 ± 54 nM
same,melting point,,301 to 302 °C
same,Ki,[2]; [7],40.1 ± 5.1 nM
same,Ki,[3]; [8],25.8 ± 4.5 nM
"CCCn1c(=O)c2[nH]c(-c3ccc(OCC(=O)NCc4ccccc4)cc3)nc2n(CCC)c1=O [Compound 13, 8-[4-[(Benzylcarbamoylmethyl)oxy]phenyl]-1,3-di-(n-propyl)-xanthine]",Ki,rat A1 receptors (rA1); [9],5.02 ± 0.55 nM
same,Ki,rat A2A receptors (rA2A); read-out: rA2A Ki or IC50,25.9 ± 7.6 nM
same,Ki,human A3 receptors (hA3); [6],79.2 ± 17.8 nM
same,melting point,,268 °C
same,Ki,[2]; [7],54.7 ± 21.2 nM
same,Ki,[3]; read-out: hA2A Ki or IC50,23.8 ± 5.71 nM
"CCCn1c(=O)c2[nH]c(-c3ccc(OCC(=O)N(Cc4ccccc4)Cc4ccccc4)cc3)nc2n(CCC)c1=O [Compound 15, 8-[4-[(Dibenzylcarbamoylmethyl)oxy]phenyl]-1,3-di-(n-propyl)-xanthine]",Ki,rat A1 receptors (rA1); [9],167 ± 49 nM
same,Ki,rat A2A receptors (rA2A); [4],2750 nM
same,Ki,[1]; [5],9.88 ± 1.05 nM
same,Ki,human A3 receptors (hA3); [6],284 ± 14 nM
same,melting point,,230 °C
same,Ki,[2]; [7],690 ± 98 nM
same,Ki,[3]; [8],642 ± 198 nM
"CCCn1c(=O)c2[nH]c(-c3ccc(OCC(=O)Nc4ccccc4C(C)=O)cc3)nc2n(CCC)c1=O [Compound 18, 8-[4-[((2-Acetylphenyl)carbamoylmethyl)oxy]phenyl]-1,3-di-(n-propyl)xanthine]",Ki,rat A1 receptors (rA1); [9],27.9 ± 1.6 nM
same,Ki,rat A2A receptors (rA2A); [4],434 ± 129 nM
same,selectivity for human A2B versus human A1 receptors,[1],120 fold
same,selectivity for human A2B versus human A2A receptors,[1],160 fold
same,selectivity for human A2B versus human A3 receptors,[1],23 fold
same,selectivity for human A2B versus rat A1 receptors,[1],10 fold
same,selectivity for human A2B versus rat A2A receptors,[1],160 fold
same,Ki,[1]; [5],2.74 ± 1.01 nM
same,Ki,human A3 receptors (hA3); [6],61.9 ± 3.4 nM
same,melting point,,294 °C
same,Ki,[2]; [7],335 ± 64 nM
same,Ki,[3]; [8],431 ± 176 nM
"CCCn1c(=O)c2[nH]c(-c3ccc(OCC(=O)Nc4cccc(C(C)=O)c4)cc3)nc2n(CCC)c1=O [Compound 19, 8-[4-[((3-Acetylphenyl)carbamoylmethyl)oxy]phenyl]-1,3-di-(n-propyl)xanthine]",Ki,rat A1 receptors (rA1); [9],439 ± 111 nM
same,Ki,rat A2A receptors (rA2A); [4],949 ± 394 nM
same,Ki,[1]; [5],4.92 ± 0.55 nM
same,Ki,human A3 receptors (hA3); [6],352 ± 69 nM
same,melting point,,269 to 270 °C
same,Ki,[2]; [7],234 ± 28 nM
same,Ki,[3]; [8],58.9 ± 7.1 nM
"CCCn1c(=O)c2[nH]c(-c3ccc(OCC(=O)Nc4ccc(C(C)=O)cc4)cc3)nc2n(CCC)c1=O [Compound 20, 8-[4-[((4-Acetylphenyl)carbamoylmethyl)oxy]phenyl]-1,3-di-(n-propyl)xanthine]",Ki,rat A1 receptors (rA1); [9],37.6 ± 4 nM
same,Ki,rat A2A receptors (rA2A); [4],548 ± 183 nM
same,selectivity for human A2B versus rat A1 receptors,[1],27 fold
same,Ki,[1]; [5],1.39 ± 0.3 nM
same,Ki,human A3 receptors (hA3); [6],230 ± 23 nM
same,Ki,[2]; [7],157 ± 8 nM
same,Ki,[3]; [8],112 ± 37 nM
"CCCn1c(=O)c2[nH]c(-c3ccc(/C=C/C(=O)Nc4ccccc4C(C)=O)cc3)nc2n(CCC)c1=O [Compound 35, 8-[4(2-(2-Acetylphenyl)carbamoyl-trans-vinyl)phenyl]-1,3-di-(n-propyl)xanthine]",Ki,"rat A1 receptors (rA1); Table 3, read-out: rA1 Ki or IC50",7.67 ± 2.2 nM
same,Ki,"rat A2A receptors (rA2A); Table 3, read-out: rA2A Ki or IC50",143 ± 50 nM
same,Ki,"[1]; Table 3, read-out: hA2B Ki or IC50",3.65 ± 0.98 nM
same,Ki,"human A3 receptors (hA3); Table 3, read-out: hA3 Ki or IC50",121 ± 138 nM
same,melting point,,281 to 283 °C
"CCCn1c(=O)c2[nH]c(-c3ccc(OCC(=O)NNC(C)=O)cc3)nc2n(CCC)c1=O [Compound 41, 8-[4-[(Carboxymethyl)oxy]phenyl]-1,3-di-(n-propyl)xanthine N-Acetylhydrazide]",Ki,"rat A1 receptors (rA1); Table 4, read-out: rA1 Ki",6.51 ± 1.24 nM
same,Ki,"rat A2A receptors (rA2A); Table 4, read-out: rA2A Ki",227 ± 64 nM
same,rA1/hA2B,[1]; Table 4,0.10
same,Ki,[1]; [10],33.8 ± 13.7 nM
same,Ki,[1]; [11],65.4 ± 6.5 nM
same,Ki,human A3 receptors (hA3); [12],30.9 ± 8.2 nM
same,Ki,[2]; [13],125 ± 14 nM
same,Ki,[3]; [14],186 ± 9 nM
CCCn1c(=O)[nH]c(=O)c2[nH]c(-c3ccc(OCC(=O)NN4C(=O)C(C)=C(C)C4=O)cc3)nc21 [Compound 48],Ki,"rat A1 receptors (rA1); Table 4, read-out: rA1 Ki",3590 ± 920 nM
same,rA2A % displacement of specific binding,"rat A2A receptors (rA2A); Table 4, at 100,000 nM",36 ± 4%
same,rA1/hA2B,[1]; Table 4,2.0
same,Ki,[1]; [10],1900 nM
same,Ki,[1]; [11],1800 nM
same,Ki,human A3 receptors (hA3); [12],14200 nM
same,Ki,[2]; [13],8080 nM
same,Ki,[3]; [14],5480 nM
"CCCn1c(=O)c2[nH]c(-c3ccc(OCC(=O)NN4C(=O)c5ccccc5C4=O)cc3)nc2n(CCC)c1=O [Compound 57, 8-[4-[(Carboxymethyl)oxy]phenyl]-1,3-di-(n-propyl)xanthine N,N-Phthaloylhydrazide]",Ki,"rat A1 receptors (rA1); Table 4, read-out: rA1 Ki",26.3 ± 2.3 nM
same,Ki,"rat A2A receptors (rA2A); Table 4, read-out: rA2A Ki",392 ± 117 nM
same,rA1/hA2B,[1]; Table 4,0.41
same,Ki,[1]; [10],46.4 nM
same,Ki,[1]; [11],64.4 ± 0.8 nM
same,Ki,human A3 receptors (hA3); [12],147 ± 21 nM
same,Ki,[2]; [13],210 nM
same,Ki,[3]; [14],359 nM
